The values that follow come from patent US20170143835A1, “SUBSTITUTED ANIONIC COMPOUNDS CONSISTING OF A BACKBONE MADE UP OF A DISCRETE NUMBER OF SACCHARIDE UNITS” (ADOCIA, priority 2012, published 2017).

Some results are limits rather than exact numbers.

One data set deals with serum albumin (BSA) (Bos taurus, UniProt P02769). The experiment in a line: Fluorescence test for interaction with albumin. In kind it is binding, bovine. The conditions noted are these: for Result F/F0 <0.5: compound/BSA weight ratio 1, excitation 280 nm, emission 350 nm; for Result F/F0 <0.5 / Result F/F0 <0.85: BSA 0.5 mg/ml, PBS pH 7.4. How it is done:
The test carried out is a “fluorescence” test with albumin, which makes it posible, by measuring the variations in fluorescence of albumin, to verify whether an interaction exists between the compound tested and albumin.
The compound/albumin solutions are prepared from stock solutions of compounds and of serum albumin (BSA) by mixing the appropriate volumes in order to obtain a fixed BSA concentration at 0.5 mg/ml and compound/BSA weight ratios of 1, 5 and 10. These solutions are prepared in a PBS buffer at pH 7.4.
200 μl of the various compound/BSA solutions are introduced into a 96-well plate. The fluorescence measurements are carried out at room temperature (20° C.) with an EnVision® fluorescence spectrometer (PerkinElmer). The excitation wavelength is 280 nm and the emission wavelength is 350 nm. This corresponds to the fluorescence of the tryptophan residues of albumin (Ruiz-Peña M. et al., M, A. Physico-chemical studies of molecular interactions between non-ionic surfactants and bovine serum albumin, Colloids Surf. B Biointerfaces 2010, 75, 282-289). The F (compound/BSA)/F0 (BSA alone) ratio makes it possible to evaluate the interaction between the compound and albumin. If this ratio is less than 1, this means that the compound induces partial quenching of the albumin fluorescence linked to a change in environment of the tryptophan residues. This change reflects an interaction between the compound and albumin. It was verified, as a control, that, for all the compounds tested, the fluorescence of the compound alone is negligible considering the fluorescence of albumin (fluorescence (compound) <2% fluorescence (albumin)).

The target in another data set is T1, lysozyme (Gallus gallus, UniProt P00698).
T1 construct: purchased Sigma-Aldrich L6876
The experiment in a line: Turbidity measurement assays of compound/lysozyme solutions. It is filed as physicochemical. The conditions noted are these: for Turbidity of the solutions at the molar ratio 0.1: compound/lysozyme molar ratio 0.1; for Turbidity of the solutions at the molar ratio 0.1 / Turbidity of the solutions at the molar ratio 0.5: histidine buffer pH 6.2, NaCl, HACH 2100AN turbidity meter; for Turbidity of the solutions at the molar ratio 0.5: compound/lysozyme molar ratio 0.5; for turbidity of the compound/lysozyme solution compared with the counterexample/lysozyme solutions: whatever the ratio. The method, then: The turbidity of solutions in which a “model” protein, lysozyme and either a compound according to the invention or a counterexample compound are brought together is analyzed in the compound/lysozyme molar ratios of 0, 0.1 and 0.5.
The following solutions are prepared beforehand: histidine buffer solution, pH 6.2±0.1, at 194 mM (30 mg/ml), sodium chloride (NaCl) solution at 5017 mM (293 mg/ml), solution of lysozyme (Sigma-Aldrich, Ref L6876, CAS#12650-88-3) at […] ([…]), and solutions of each of the test products (pH 6.2±0.1), i.e. compounds according to the invention and counterexamples.
For each of the solutions of compounds to be prepared, 3 ml of an aqueous solution of compound are adjusted to pH 6.2±0.1 using 50±25 μl of a 0.1N hydrochloric acid (HCl) solution.
The test solutions at the compound/lysozyme molar ratios: 0, 0.1 and 0.5 are then prepared as follows.
The sodium chloride (NaCl) solution at 5017 mM, the histidine buffer solution at 194 mM and then the solution of compound are successively added to water, which results in a mixture which is homogenized on a roller mixer (Stuart Roller Mixer SRT9D) for 1 minute.
The lysozyme solution is, finally, added and then the final mixture is homogenized on the roller mixer for 1 minute.
The turbidity (expressed in NTU) for each of the final test solutions is measured using a HACH 2100AN turbidity meter.
The turbidity of the compound 1/lysozyme solution is analyzed in comparison with that of the counterexample A1/lysozyme and counterexample A2/lysozyme solutions. The turbidity of the compound 13/lysozyme solution is analyzed in comparison with that of the counterexample B1/lysozyme and counterexample B2/lysozyme solutions.

T1 sequence (P00698 19-147): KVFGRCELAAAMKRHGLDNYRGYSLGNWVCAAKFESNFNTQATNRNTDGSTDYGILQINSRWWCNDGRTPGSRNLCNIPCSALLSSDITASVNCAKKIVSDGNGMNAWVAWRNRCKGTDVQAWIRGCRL
Sequence of serum albumin (BSA) (P02769 25-607): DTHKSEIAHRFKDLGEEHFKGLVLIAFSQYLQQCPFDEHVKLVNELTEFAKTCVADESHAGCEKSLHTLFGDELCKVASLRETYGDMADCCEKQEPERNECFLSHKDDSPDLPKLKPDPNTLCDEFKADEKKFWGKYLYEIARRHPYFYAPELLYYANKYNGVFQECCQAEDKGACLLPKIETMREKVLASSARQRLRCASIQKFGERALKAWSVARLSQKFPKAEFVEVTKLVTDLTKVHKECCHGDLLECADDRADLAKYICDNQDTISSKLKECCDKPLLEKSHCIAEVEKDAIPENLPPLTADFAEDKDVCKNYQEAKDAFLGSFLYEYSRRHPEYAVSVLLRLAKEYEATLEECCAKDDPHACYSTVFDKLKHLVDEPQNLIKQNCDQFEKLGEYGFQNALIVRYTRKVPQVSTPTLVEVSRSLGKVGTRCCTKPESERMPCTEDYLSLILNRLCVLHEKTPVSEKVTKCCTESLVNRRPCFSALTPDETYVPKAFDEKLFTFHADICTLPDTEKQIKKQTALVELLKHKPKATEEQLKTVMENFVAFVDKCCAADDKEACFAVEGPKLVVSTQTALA

On to “Sodium maltotriosemethylcarboxylate Functionalized with 2-[(2-dodecanoylamino-6-dodecanoylamino)hexanoylamino]ethanamine [Compound 20]”, for which the “Result F/F0 <0.5” value on serum albumin (BSA) is “YES”.
Still for that read-out and setting: as for “Sodium maltotriosemethylcarboxylate Functionalized with 2-[(2octanoylamino-6-octanoylamino)hexanoylamino]ethanamine [Compound 27]”, the entry is “YES”; as for “Sodium maltotriosemethylcarboxylate Functionalized with 2-aminoethyl dodecanoate [Compound 29]”, “YES”; as for “Sodium maltotriosemethylcarboxylate Functionalized with 3,7-dimethyloctanoyl phenylalaninate [Compound 30]”, “YES”.
Regarding “Sodium maltotriosemethylcarboxylate Functionalized with L-phenylalanine [Compound 1]”, on lysozyme, the “Turbidity of the solutions at the molar ratio 0.1” value worked out at 55 NTU, the “Turbidity of the solutions at the molar ratio 0.5” value stood at 4.8 NTU and the “turbidity of the compound/lysozyme solution compared with the counterexample/lysozyme solutions” value is on record as “lower”.
Turning to “Sodium maltotriosemethylcarboxylate Functionalized with L-phenylalanine [Compound 2]”, the “Result F/F0 <0.85” value at serum albumin (BSA) (compound/BSA weight ratio 5) and at serum albumin (BSA) (compound/BSA weight ratio 10) was “YES” throughout. Also, the “fluorescence ratio F/F0” value on serum albumin (BSA) (compound/BSA weight ratio of 5) and at serum albumin (BSA) (compound/BSA weight ratio of 10) was less than 0.85 in each case.
As for “Sodium maltotriosemethylcarboxylate Functionalized with N-(2-aminoethyl)dodecanamide [Compound 21]”, the “Result F/F0 <0.5” value at serum albumin (BSA) was “YES”.
Regarding “Sodium maltotriosemethylcarboxylate Functionalized with cholesteryl leucinate [Compound 13]”, at lysozyme, the “Turbidity of the solutions at the molar ratio 0.1” value turned out to be 32 NTU, the “Turbidity of the solutions at the molar ratio 0.5” value is 395 NTU and the “turbidity of the compound/lysozyme solution compared with the counterexample/lysozyme solutions” value was “lower”.
For “Sodium maltotriosemethylcarboxylate Functionalized with decanoyl glycinate [Compound 23]”, the “Result F/F0 <0.5” value at serum albumin (BSA) was “YES”.
“Sodium maltotriosesuccinate Functionalized with dilauryl aspartate [Compound 22]”: the “Result F/F0 <0.5” value on serum albumin (BSA) was “YES”.
